Laboratory results taken from patent publication US11000033B2, “Ketone or oxime compound, and herbicide” (NISSAN CHEMICAL CORPORATION, priority 2014, dated 2021).

Key:
Assay type in all cases: in vivo
corn = assay: Test Example 5: effect on crop by foliage application, plastic box (symbol c); details: 320 g/ha, 3 weeks after application
Summary of the method: (§1)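 Diluvial soil, sterilized and boxed (21 × 13 × 7 cm), received spot-sown seed covered by about 1.5 cm soil; plants were then greenhouse-grown at 25–30° C.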

wheat = assay: Test Example 4: effect on crop by soil treatment (symbol e); details: for e: wheat, effect on crop grade: application herbicide amount 320 g/ha; for e: wheat, effect grade on crop: 320 g/ha
Summary of the method: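 Diluvial soil (sterilized) in boxes; seeds placed spot-wise alongside weed species; ~1.5 cm covering soil. Greenhouse, 25–30° C.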

[1] = tested on: Echinochloa oryzacola Vasing.; assay: Test Example 1: herbicidal activity, application before weed generation in submerged conditions (symbol A); details: application herbicide amount 320 g/ha
Summary of the method: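 Pre-emergence, paddy conditions: emulsifiable formulation diluted in water, dosed onto floodwater (4 cm depth) on sowing day. Alluvial soil; weeds sown mixed; rice transplanted at 2.5-leaf stage. Greenhouse 25–30 °C, 3 wk. Score 0–5 (5 = ≥90% kill, 0 = ≤5%).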

soybean = assay: Test Example 5: effect on crop by foliage application, plastic box (symbol d); details: 320 g/ha, 3 weeks after application
Summary of the method: as §1

Cyperus difformis = assay: Test Example 3: herbicidal effect by foliage application, Wagner pot (symbol E); details: application herbicide amount 320 g/ha
Summary of the method: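 Rating at 3 weeks post-spray, by defined criteria. Treatment: emulsion diluted with water to a predetermined amount, applied evenly to foliage of 14-day-old plants raised in alluvial soil flooded 0.1–0.5 cm deep at 25–30 °C, rice co-sown.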

Veronica persica [2] = assay: Test Example 4: herbicidal effect by soil treatment (symbol R)
Summary of the method: (§2)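 Seeds were sown in sterilized diluvial soil, covered with about 1.5 cm of soil, and the soil surface was sprayed with a water-diluted emulsion of the compound at a predetermined rate. Plants grew in a greenhouse at 25° C. to 30° C.; effects were scored visually 3 weeks after application.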

Amaranthus retroflexus = assay: Test Example 4: herbicidal effect by soil treatment (symbol N)
Summary of the method: as §2

Veronica persica [3] = assay: Test Example 5: herbicidal effect by foliage application, plastic box (symbol R); details: 320 g/ha, 3 weeks after application
Summary of the method: (§3)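 Post-emergence spray; diluvial soil (sterilized), ~1.5 cm seed cover; greenhouse 25–30° C; 14-day-old plants; water-diluted emulsion at predetermined dose; visual score at 3 wk post-treatment.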

Galium spurium = assay: Test Example 5: herbicidal effect by foliage application, plastic box (symbol Q); details: 320 g/ha, 3 weeks after application
Summary of the method: as §3

Abutilon theophrasti = assay: Test Example 4: herbicidal effect by soil treatment (symbol M)
Summary of the method: as §2

Chenopodium album = assay: Test Example 5: herbicidal effect by foliage application, plastic box (symbol O); details: 320 g/ha, 3 weeks after application
Summary of the method: as §3

Apera spica-venti = assay: Test Example 4: herbicidal effect by soil treatment (symbol L)
Summary of the method: as §2

[4] = application herbicide amount 320 g/ha

Structure (SMILES)	c: corn, effect on crop grade (corn)	e: wheat, effect on crop grade (wheat)	Herbicidal effect grade, A: Echinochloa oryzacola Vasing. [1]	d: soybean, effect on crop grade (soybean)	herbicidal effect on E, grade 0-5 (Cyperus difformis)	R: Veronica persica, herbicidal effect grade (Veronica persica [2]; [4])	N: Amaranthus retroflexus, herbicidal effect grade (Amaranthus retroflexus; [4])	Q: Galium spurium, herbicidal effect grade (Galium spurium)	M: Abutilon theophrasti, herbicidal effect grade (Abutilon theophrasti; [4])	L: Apera spica-venti, herbicidal effect grade (Apera spica-venti; [4])	c: corn, effect on crop (criteria 0-5) (corn)	e: wheat, effect grade on crop (wheat)	d: soybean, effect on crop (criteria 0-5) (soybean)	R: Veronica persica, herbicidal effect grade (Veronica persica [2]; 320 g/ha)	N: Amaranthus retroflexus, herbicidal effect grade (Amaranthus retroflexus; 320 g/ha)	R: Veronica persica, herbicidal effect (criteria 0-5) (Veronica persica [3])	Q: Galium spurium, herbicidal effect (criteria 0-5) (Galium spurium)	M: Abutilon theophrasti, herbicidal effect grade (Abutilon theophrasti; 320 g/ha)	O: Chenopodium album, herbicidal effect (criteria 0-5) (Chenopodium album)	L: Apera spica-venti, herbicidal effect grade (Apera spica-venti; 320 g/ha)	further results
CON=C(C)C1CC(O)=C(c2c(C)cc(C)cc2C)C1=O (mixture of isomers) [3-002]	0 (Herbicidal ratio of 5% or lower (almost no effect))	0 (Herbicidal ratio of 5% or lower (almost no effect))	0 (Herbicidal ratio of 5% or lower (almost no effect))	0 (Herbicidal ratio of 5% or lower (almost no effect))	0 (Herbicidal ratio of 5% or lower (almost no effect))	0 (Herbicidal ratio of 5% or lower (almost no effect))	0 (Herbicidal ratio of 5% or lower (almost no effect))	0 (Herbicidal ratio of 5% or lower (almost no effect))	0 (Herbicidal ratio of 5% or lower (almost no effect))	0 (Herbicidal ratio of 5% or lower (almost no effect))	–	–	–	–	–	–	–	–	–	–	R: Veronica persica, herbicidal effect grade (Veronica persica [3]): 0 (Herbicidal ratio of 5% or lower (almost no effect)); O: Chenopodium album, herbicidal effect grade (Chenopodium album): 0 (Herbicidal ratio of 5% or lower (almost no effect))
CON=C(C)CC1CC(OS(=O)(=O)C2CC2)=C(c2c(C)cc(C)cc2C)C1=O (centres unmarked) [1-143]	–	–	4 (Herbicidal ratio of 70% or higher and lower than 90%)	–	–	–	–	–	–	–	3 (Herbicidal ratio of 40% or higher and lower than 70%)	2 (Herbicidal ratio of 20% or higher and lower than 40%)	1 (Herbicidal ratio of 5% or higher and lower than 20%)	0 (Herbicidal ratio of 5% or lower (almost no effect))	0 (Herbicidal ratio of 5% or lower (almost no effect))	0 (Herbicidal ratio of 5% or lower (almost no effect))	0 (Herbicidal ratio of 5% or lower (almost no effect))	0 (Herbicidal ratio of 5% or lower (almost no effect))	0 (Herbicidal ratio of 5% or lower (almost no effect))	5 (Herbicidal ratio of 90% or more (almost completely withered))	–
CON=C(C)CC1CC(OC(=O)OCc2ccccc2)=C(c2c(C)cc(C)cc2C)C1=O (centres unmarked) [1-145]	–	–	5 (Herbicidal ratio of 90% or more (almost completely withered))	–	–	–	–	–	–	–	5 (Herbicidal ratio of 90% or more (almost completely withered))	5 (Herbicidal ratio of 90% or more (almost completely withered))	2 (Herbicidal ratio of 20% or higher and lower than 40%)	3 (Herbicidal ratio of 40% or higher and lower than 70%)	4 (Herbicidal ratio of 70% or higher and lower than 90%)	3 (Herbicidal ratio of 40% or higher and lower than 70%)	2 (Herbicidal ratio of 20% or higher and lower than 40%)	4 (Herbicidal ratio of 70% or higher and lower than 90%)	1 (Herbicidal ratio of 5% or higher and lower than 20%)	5 (Herbicidal ratio of 90% or more (almost completely withered))	–
C=CCOC(=O)OC1=C(c2c(C)cc(C)cc2C)C(=O)C(CC(C)=NOC)C1 (centres unmarked) [1-146]	–	–	5 (Herbicidal ratio of 90% or more (almost completely withered))	–	–	–	–	–	–	–	5 (Herbicidal ratio of 90% or more (almost completely withered))	5 (Herbicidal ratio of 90% or more (almost completely withered))	4 (Herbicidal ratio of 70% or higher and lower than 90%)	5 (Herbicidal ratio of 90% or more (almost completely withered))	5 (Herbicidal ratio of 90% or more (almost completely withered))	3 (Herbicidal ratio of 40% or higher and lower than 70%)	3 (Herbicidal ratio of 40% or higher and lower than 70%)	5 (Herbicidal ratio of 90% or more (almost completely withered))	2 (Herbicidal ratio of 20% or higher and lower than 40%)	5 (Herbicidal ratio of 90% or more (almost completely withered))	–
COCCOC(=O)OC1=C(c2c(C)cc(C)cc2C)C(=O)C(CC(C)=NOC)C1 (centres unmarked) [1-147]	–	–	5 (Herbicidal ratio of 90% or more (almost completely withered))	–	–	–	–	–	–	–	5 (Herbicidal ratio of 90% or more (almost completely withered))	5 (Herbicidal ratio of 90% or more (almost completely withered))	3 (Herbicidal ratio of 40% or higher and lower than 70%)	3 (Herbicidal ratio of 40% or higher and lower than 70%)	5 (Herbicidal ratio of 90% or more (almost completely withered))	4 (Herbicidal ratio of 70% or higher and lower than 90%)	4 (Herbicidal ratio of 70% or higher and lower than 90%)	5 (Herbicidal ratio of 90% or more (almost completely withered))	1 (Herbicidal ratio of 5% or higher and lower than 20%)	5 (Herbicidal ratio of 90% or more (almost completely withered))	–
CCOC(=O)C(C(=O)c1ccccc1)C1CC(O)=C(c2c(C)cc(C)cc2C)C1=O (centres unmarked) [2-008]	1 (Herbicidal ratio of 5% or higher and lower than 20%)	0 (Herbicidal ratio of 5% or lower (almost no effect))	0 (Herbicidal ratio of 5% or lower (almost no effect))	1 (Herbicidal ratio of 5% or higher and lower than 20%)	0 (Herbicidal ratio of 5% or lower (almost no effect))	0 (Herbicidal ratio of 5% or lower (almost no effect))	0 (Herbicidal ratio of 5% or lower (almost no effect))	0 (Herbicidal ratio of 5% or lower (almost no effect))	0 (Herbicidal ratio of 5% or lower (almost no effect))	0 (Herbicidal ratio of 5% or lower (almost no effect))	–	–	–	–	–	–	–	–	–	–	O: Chenopodium album, herbicidal effect grade (Chenopodium album): 0 (Herbicidal ratio of 5% or lower (almost no effect))
CCC(=O)CCC1CC(OC)=C(c2c(C)cc(C)cc2C)C1=O (centres unmarked) [5-002]	0 (Herbicidal ratio of 5% or lower (almost no effect))	0 (Herbicidal ratio of 5% or lower (almost no effect))	0 (Herbicidal ratio of 5% or lower (almost no effect))	0 (Herbicidal ratio of 5% or lower (almost no effect))	0 (Herbicidal ratio of 5% or lower (almost no effect))	0 (Herbicidal ratio of 5% or lower (almost no effect))	0 (Herbicidal ratio of 5% or lower (almost no effect))	0 (Herbicidal ratio of 5% or lower (almost no effect))	0 (Herbicidal ratio of 5% or lower (almost no effect))	0 (Herbicidal ratio of 5% or lower (almost no effect))	–	–	–	–	–	–	–	–	–	–	O: Chenopodium album, herbicidal effect grade (Chenopodium album): 0 (Herbicidal ratio of 5% or lower (almost no effect))
CON=C(C)CC1CC(O)=C(c2c(C)cc(C(=O)OC)cc2C)C1=O (centres unmarked) [6-023]	3 (Herbicidal ratio of 40% or higher and lower than 70%)	0 (Herbicidal ratio of 5% or lower (almost no effect))	0 (Herbicidal ratio of 5% or lower (almost no effect))	0 (Herbicidal ratio of 5% or lower (almost no effect))	4 (Herbicidal ratio of 70% or higher and lower than 90%)	0 (Herbicidal ratio of 5% or lower (almost no effect))	0 (Herbicidal ratio of 5% or lower (almost no effect))	0 (Herbicidal ratio of 5% or lower (almost no effect))	0 (Herbicidal ratio of 5% or lower (almost no effect))	4 (Herbicidal ratio of 70% or higher and lower than 90%)	–	–	–	–	–	–	–	–	–	–	R: Veronica persica, herbicidal effect grade (Veronica persica [3]): 1 (Herbicidal ratio of 5% or higher and lower than 20%)
